“Also recorded” adds a separate entry of the source.
What was measured:
[1] = Cell-free MFF fluorescence as a function of Fe3+ concentration; type: physicochemical; conditions: cell free medium
Experimental: (§1) MFF (0-10 μM) was dissolved in medium at the presumed intramitochondrial pH (pH 8.0, 37° C.) (FIG. 2, left panel). Fluorescence of MFF (1 μM) was measured as a function of increasing ferrous ammonium sulfate (Fe^2+) and ferric chloride (Fe^3+) concentration from freshly prepared stock solutions (1 mM). Fluorescence intensity is shown in arbitrary units (a.u.). (FIG. 2, right panel).

[2] = Absorption, excitation and emission spectra of mitoferrofluor; type: physicochemical
[3] = system: mitochondria of cultured rat hepatocytes; experiment: Mitochondrial accumulation and retention of probe after depolarization, confocal imaging; type: cell-based; conditions: for retention by mitochondria after depolarization: rat hepatocytes, CCCP 10 μM, oligomycin 10 μg/ml, myxothiazol 10 μM
Experimental: (§2) Rhodamine 123 (Rh123) and MitoTracker Green (MTG) were obtained from Molecular Probes. Primary rat hepatocytes were isolated from overnight-fasted male Sprague-Dawley rats (200-250 g) by collagenase perfusion. Hepatocytes were plated on Type 1 collagen-coated MatTek dishes at a density of 300,000 cells per well and cultured overnight in Waymouth's MB-742/1 growth medium containing 27 mM NaHCO3, 2 mM L-glutamine, 10% fetal calf serum, 100 nM insulin and 10 nM dexamethasone, pH 7.4 at 37° C. in 5% CO2/air.
(§3) Confocal images of hepatocytes were taken with a Zeiss LSM 510 inverted laser scanning confocal microscope (Carl Zeiss, Germany) using a 63×oil immersion objective.
Overnight-cultured rat hepatocytes were loaded with MFF (1 μM for 20 min), washed and incubated for 60 min.
Overnight-cultured rat hepatocytes were loaded with MFF and MTG (both 1 μM for 20 min), washed and incubated for 60 min. Cells were then incubated with 5 mM fructose and imaged “BEFORE” and “AFTER” addition of CCCP, oligomycin and myxothiazol. […] MFF fluorescence changed essentially identically to MTG consistent with covalent labeling of mitochondrial proteins by MFF.

[4] = system: mitochondrial chelatable Fe^2+ in cultured rat hepatocytes; experiment: Mitoferrofluor fluorescence quenching after lysosomal iron release with bafilomycin A1; type: cell-based; conditions: 120 min after bafilomycin A1, vs vehicle (DMSO)
Experimental: as §2, §3
Overnight-cultured rat hepatocytes were loaded with MFF and then rhodamine 123, as described in Example 6. […] Panel C represents a quantitative analysis of 10 random fields (*p<0.05 vs vehicle, n=3).

[5] = system: mitochondrial chelatable Fe^2+ in cultured rat hepatocytes; experiment: Mitoferrofluor quenching after mitochondrial Fe2+ uptake; type: cell-based
Experimental: as §2, §3
Overnight-cultured rat hepatocytes were loaded with MFF (1 μM for 20 min), washed out and incubated for 60 min. Rh123 (0.5 μM for 20 min) was then loaded. Fe^2+ was added as ferrous ammonium sulfate (10 mM). Fe^2+ addition quenched MFF fluorescence by ˜72%.

[6] = Cell-free MFF fluorescence as a function of Fe2+ concentration; type: physicochemical
Experimental: as §1

Row | fluorescence emission peak [2] [nm] | fluorescence excitation peak [2] [nm] | extinction coefficient ([2]; at 566 nm) | IC50 ([6]; MFF 1 μM, pH 8.0, 37° C., read-out: IC50 of Fe^2+ quenching of MFF fluorescence) [µM] | Structure (SMILES) | quenching of MFF fluorescence by Fe^3+ [1] | accumulation into mitochondria ([3]; cultured rat hepatocytes) | retention by mitochondria after depolarization [3] | quenching of mitochondrial MFF fluorescence after bafilomycin A1 [4] | decrease of intramitochondrial MFF fluorescence ([5]; MFF-loaded hepatocytes, excess extracellular Fe^2+ added) [%] | quenching of MFF fluorescence by Fe^2+ addition ([5]; rat hepatocytes, MFF 1 μM for 20 min, ferrous ammonium sulfate 10 mM) [%] | quenching of MFF fluorescence by Fe^2+ ([6]; cell free medium)
1 | 598 | 554 | 40,400 cm^−1/M | 1 to 2 | CCN(CC)c1ccc2c(-c3ccccc3C(=O)OCCCOc3cc(OCCCBr)cc(C(=O)Nc4cc5cccnc5c5ncccc45)c3)c3ccc(=[N+](CC)CC)cc-3oc2c1.[Br-] [MFF, N-(9-(2-((3-(3-((1,10-phenanthrolin-5-yl)carbamoyl)-5-(3-bromopropoxy)phenoxy)propoxy)carbonyl)phenyl)-6-(diethylamino)-3H-xanthen-3-ylidene)-N-ethylethanaminium bromide] | not by Fe^3+; also recorded: not Fe^3+ quenched | selectively accumulated into mitochondria | retained by mitochondria; also recorded: MFF fluorescence was retained; also recorded: retained MFF to the same extent as MTG | became quenched; also recorded: quenched mitochondrial MFF fluorescence | ~80 | ~72 | strongly and stoichiometrically quenched by Fe^2+
2 | – | – | – | – | CN1/C(=C/C=C/c2n(Cc3ccc(CCl)cc3)c3cc(Cl)c(Cl)cc3[n+]2Cc2ccc(CCl)cc2)Oc2ccccc21 [MTG, reference compound] | – | – | some release of MTG into the cytosol | – | – | – | –

From patent US9970947B2, “Fluorescent probe” (MUSC FOUNDATION FOR RESEARCH DEVELOPMENT, priority 2016, dated 2018)
